US4360516A, “Modified D-retro cyclic hexapeptide somatostatin analogs” (Merck & Co., Inc., priority 1981, dated 1982)
Square brackets hold non-standard residues; d marks the D form. Peptide text beside a SMILES is read from it. dNMeF = CN[C@H](Cc1ccccc1)C(=O)O; dAbu = CC[C@@H](N)C(=O)O

system: growth hormone release, rat pituitary cells; test: in vitro test for the inhibition of growth hormone release in cultured rat pituitary cells; assay type: cell-based; details: multiples or fractions of the effect of somatostatin (arbitrary value 1); rat pituitary cells after 4 days in culture, 4 hours incubation, graded doses; growth hormone by radioimmunoassay
Method: The instant cyclic hexapeptide analogs ofsomatostatin are tested and compared with the effects of somatostatin in an in vitro test for the inhibition of growth hormone. The test is described as follows:
"Rat pituitaries" were isolated according to the procedures of Vale and Grant `In vitro Pituitary Hormone Secretion Assay for Hypophysiopic Substances` in Methods in Enzymology. Vol.XXXVII, eds. O'Malley, B. W. and Hardman, J. G. (Academic Press, Inc., New York) pp.5-93 (1975).
"After 4 days in culture, the cells were washed and incubated for 4 hours in Dulbecco-modified Eagle's medium in the presence or absence of graded doses of each analog of somatostatin. The medium was then collected for subsequent growth hormone determination by a double antibody radioimmunoassay for rat growth hormone."
The test results for some of the compounds of this invention are recorded below with the results for somatostatin listed first and given the arbitrary value of 1. The results for the instant compounds are given as multiples or fractions of the effect of somatostatin. The first of the instant compounds listed is the compound prepared in Examples 1-5. The compound is written slightly different, however, to conform to the order of the amino acids found in somatostatin.

Point of comparison: C[C@H](O)[C@H]1NC(=O)[C@@H](Cc2ccccc2)N(C)C(=O)[C@@H](C)NC(=O)[C@@H](Cc2ccccc2)NC(=O)[C@H](Cc2c[nH]c3ccccc23)NC(=O)[C@@H](CCCCN)NC1=O [Cyclo-(D-Ala--N--Me--D-Phe--D-Thr--D-Lys--L-Trp--D-Phe)] (cyclo(W[dF][dA][dNMeF][dT][dK])), “Growth Hormone Release Inhibition In Vitro” value 0.27. Against it:
- C[C@H](O)[C@H]1NC(=O)[C@@H](Cc2ccccc2)N(C)C(=O)[C@@H](C)NC(=O)[C@@H](Cc2ccccc2)NC(=O)[C@@H](Cc2c[nH]c3ccccc23)NC(=O)[C@H](CCCCN)NC1=O [Cyclo-(D-Ala--N--Me--D-Phe--D-Thr--L-Lys--D-Trp--D-Phe)] (cyclo(K[dW][dF][dA][dNMeF][dT])) — higher, 0.88
- CC[C@H]1NC(=O)[C@@H](Cc2ccc(O)cc2)NC(=O)[C@@H](Cc2c[nH]c3ccccc23)NC(=O)[C@H](CCCCN)NC(=O)[C@@H](C(C)C)NC(=O)[C@@H](Cc2ccccc2)N(C)C1=O [Cyclo-(D-Abu--N--Me--D-Phe--D-Val--L-Lys--D-Trp--D-Tyr)] (cyclo(K[dW][dY][dAbu][dNMeF][dV])) — higher, 2.4
- CC(C)[C@H]1NC(=O)[C@@H](Cc2ccccc2)N(C)C(=O)[C@@H](C)NC(=O)[C@@H](Cc2ccccc2)NC(=O)[C@@H](Cc2c[nH]c3ccccc23)NC(=O)[C@H](CCCCN)NC1=O [Cyclo-(D-Ala--N--Me--D-Phe--D-Val--L-Lys--D-Trp--D-Phe)] (cyclo(K[dW][dF][dA][dNMeF][dV])) — higher, 0.3
